Measured values reported in US20040023994A1 (priority 2002, published 2004).
Read-outs that look alike come from different tables or passages of the source.

Columns and labels:
MDA-MB-435 = conditions: for CC50: read-out: LC50
CCRF-CEM [1] = tested on: CCRF-CEM
SW-620 = conditions: for CC50: read-out: LC50
[2] = tested on: Heterozygous nude CD-1 male mice; assay: Intestinal pathological analysis (crypt epithelial cell apoptosis) in treated mice; conditions: multiple doses
Protocol: Heterozygous nude CD-1 male mice were treated (i.p.) with multiple doses consisting of either one dose daily for three consecutive days (cis-AVTP or trans-AVTG, 21.25 μmol/kg, 6-TG, 8.5 or 21.25 μmol/kg, or vehicle; one cycle), or one dose daily for three consecutive days, repeated again five days later (cis-AVTP, trans-AVTG or 6-TG, 8.5 or 21.25 μmol/kg, or vehicle; two cycles).
The mice were sacrificed 24 h after the last treatment. Urine was collected for 24 h before initiation of treatment and every 24 h thereafter until the mice were sacrificed. Blood was collected by cardiac puncture and blood cells counted. Sections of liver, kidney, intestines, stomach and sternum were stained with hematoxylin and eosin and subjected to pathological analysis. Bone marrow smears were prepared for assessment of bone marrow cellularity. Liver function was evaluated by measuring alanine aminotransferase-(ALT) and aspartate aminotransferase (AST) activities in plasma. Kidney function was evaluated by measuring blood urea nitrogen in plasma and γ-glutamyltransferase activity and glucose levels in urine.

K-562 [3] = conditions: for CC50: read-out: LC50
MDA-MB-231/ATCC = conditions: for CC50: read-out: LC50
KM12 = conditions: for CC50: read-out: LC50
SK-MEL-5 = conditions: for CC50: read-out: LC50
HT29 = conditions: for CC50: read-out: LC50
SK-OV-3 = conditions: for CC50: read-out: LC50
SN12C = type: cell-based; conditions: Renal, 48 h
SF-268 = conditions: for CC50: read-out: LC50
RPMI-8226 [4] = conditions: for CC50: read-out: LC50
CAKI-1 = conditions: for CC50: read-out: LC50
SR = conditions: Leukemia, NCI database, cited from earlier work; for CC50: read-out: LC50 (the source's name)
NCI-H23 = conditions: NCI-H23, Non-Small Cell Lung, NCI database, cited from earlier work; for CC50: read-out: LC50 (the source's name)
RPMI-8226 [5] = conditions: RPMI-8226, Leukemia, NCI database, cited from earlier work; for CC50: read-out: LC50 (the source's name)
K-562 [6] = conditions: K-562, Leukemia, NCI database, cited from earlier work; for CC50: read-out: LC50 (the source's name)
SF-295 = conditions: SF-295, CNS, NCI database, cited from earlier work; for CC50: read-out: LC50 (the source's name)
CCRF-CEM [7] = conditions: Leukemia, NCI database, cited from earlier work; for CC50: read-out: LC50 (the source's name)
OVCAR-4 = conditions: OVCAR-4, Ovarian, NCI database, cited from earlier work; for CC50: read-out: LC50 (the source's name)
SF-539 = conditions: SF-539, CNS, NCI database, cited from earlier work; for CC50: read-out: LC50 (the source's name)
HOP-62 = conditions: HOP-62, Non-Small Cell Lung, NCI database, cited from earlier work; for CC50: read-out: LC50 (the source's name)
[8] = Homo sapiens, 48 h, read-out: LC50

Compound: CC(=O)C=CSc1ncnc2nc[nH]c12 [cis-AVTP, 6-(2-acetylvinylthio) purine]
- GI50 (MDA-MB-435; Homo sapiens, MDA-MB-435, 48 h): 0.56 µM
- CC50 (MDA-MB-435; Homo sapiens, MDA-MB-435, 48 h): 9.8 µM
- TGI (MDA-MB-435; MDA-MB-435, Breast, 48 h): 2.75 µM
- GI50 (CCRF-CEM [1]; Homo sapiens, 48 h): 0.2 µM
- CC50 (CCRF-CEM [1]; [8]): > 100 µM
- TGI (CCRF-CEM [1]; Leukemia, 48 h): 2.17 µM
- GI50 (ACHN; Homo sapiens, 48 h): 1.99 µM
- CC50 (ACHN; [8]): 7.59 µM
- TGI (ACHN; Renal, 48 h): 3.89 µM
- GI50 (SW-620; Homo sapiens, SW-620, 48 h): 1.52 µM
- CC50 (SW-620; Homo sapiens, SW-620, 48 h): > 100 µM
- TGI (SW-620; SW-620, Colon, 48 h): >100 µM
- crypt epithelial apoptosis, large intestines [2]: no increase
- crypt epithelial cell apoptosis, small intestines [2]: increased slightly
- GI50 (K-562 [3]; Homo sapiens, K562, 48 h): 0.09 µM
- CC50 (K-562 [3]; Homo sapiens, K562, 48 h): > 100 µM
- TGI (K-562 [3]; K-562, Leukemia, 48 h): >100 µM
- GI50 (MDA-MB-231/ATCC; Homo sapiens, MDA-MB-231, 48 h): 1.27 µM
- CC50 (MDA-MB-231/ATCC; Homo sapiens, MDA-MB-231, 48 h): > 100 µM
- TGI (MDA-MB-231/ATCC; MDA-MB-231/ATCC, Breast, 48 h): 4.56 µM
- GI50 (KM12; Homo sapiens, KM12, 48 h): 3.35 µM
- CC50 (KM12; Homo sapiens, KM12, 48 h): > 100 µM
- TGI (KM12; KM12, Colon, 48 h): 27.2 µM
- GI50 (SK-MEL-5; Homo sapiens, SK-MEL-5, 48 h): 1.3 µM
- CC50 (SK-MEL-5; Homo sapiens, SK-MEL-5, 48 h): 8.07 µM
- TGI (SK-MEL-5; SK-MEL-5, Melanoma, 48 h): 3.24 µM
- TGI (HT29; HT29, Colon, 48 h): 2.85 µM
- GI50 (HT29; Homo sapiens, HT-29, 48 h): 0.73 µM
- CC50 (HT29; Homo sapiens, HT-29, 48 h): 9.23 µM
- GI50 (SK-OV-3; Homo sapiens, SK-OV-3, 48 h): 0.11 µM
- CC50 (SK-OV-3; Homo sapiens, SK-OV-3, 48 h): 33.3 µM
- TGI (SK-OV-3; SK-OV-3, Ovarian, 48 h): 5.04 µM
- GI50 (SN12C; Homo sapiens): 2.03 µM
- CC50 (SN12C; Homo sapiens, read-out: LC50 (the source's name)): 28.1 µM
- TGI (SN12C): 5.75 µM
- GI50 (SF-268; Homo sapiens, SF-268, 48 h): < 0.01 µM
- CC50 (SF-268; Homo sapiens, SF-268, 48 h): 27.7 µM
- TGI (SF-268; SF-268, CNS, 48 h): 0.24 µM
- GI50 (RPMI-8226 [4]; Homo sapiens, RPMI-8226, 48 h): 0.12 µM
- CC50 (RPMI-8226 [4]; Homo sapiens, RPMI-8226, 48 h): > 100 µM
- TGI (RPMI-8226 [4]; RPMI-8226, Leukemia, 48 h): 1.67 µM
- TGI (CAKI-1; CAKI-1, Renal, 48 h): 0.55 µM
- GI50 (CAKI-1; Homo sapiens, CAKI-1, 48 h): 0.11 µM
- CC50 (CAKI-1; Homo sapiens, CAKI-1, 48 h): 2.85 µM

Compound: CC(=O)C=CSc1nc(N)nc2nc[nH]c12 [trans-AVTG, 6-(2-acetylvinylthio) guanine]
- GI50 (MDA-MB-435; MDA-MB-435, Breast, 48 h): 1.04 µM
- TGI (MDA-MB-435; MDA-MB-435, Breast, 48 h): 12.9 µM
- CC50 (MDA-MB-435; MDA-MB-435, Breast, 48 h): 51.5 µM
- GI50 (CCRF-CEM [1]; Leukemia, 48 h): 0.14 µM
- TGI (CCRF-CEM [1]; Leukemia, 48 h): 1.83 µM
- CC50 (CCRF-CEM [1]; read-out: LC50, Leukemia, 48 h): 54.8 µM
- GI50 (ACHN; Renal, 48 h): 3.63 µM
- TGI (ACHN; Renal, 48 h): 51.4 µM
- CC50 (ACHN; read-out: LC50, Renal, 48 h): > 100 µM
- GI50 (SW-620; SW-620, Colon, 48 h): 1.13 µM
- TGI (SW-620; SW-620, Colon, 48 h): 6.50 µM
- CC50 (SW-620; SW-620, Colon, 48 h): > 100 µM
- GI50 (K-562 [3]; K-562, Leukemia, 48 h): 0.5 µM
- TGI (K-562 [3]; K-562, Leukemia, 48 h): >100 µM
- CC50 (K-562 [3]; K-562, Leukemia, 48 h): > 100 µM
- GI50 (MDA-MB-231/ATCC; MDA-MB-231/ATCC, Breast, 48 h): 0.89 µM
- TGI (MDA-MB-231/ATCC; MDA-MB-231/ATCC, Breast, 48 h): 23.6 µM
- CC50 (MDA-MB-231/ATCC; MDA-MB-231/ATCC, Breast, 48 h): > 100 µM
- GI50 (KM12; KM12, Colon, 48 h): 2.71 µM
- TGI (KM12; KM12, Colon, 48 h): 13.0 µM
- CC50 (KM12; KM12, Colon, 48 h): 64.8 µM
- GI50 (SK-MEL-5; SK-MEL-5, Melanoma, 48 h): 1.68 µM
- TGI (SK-MEL-5; SK-MEL-5, Melanoma, 48 h): 8.10 µM
- CC50 (SK-MEL-5; SK-MEL-5, Melanoma, 48 h): 41.7 µM
- GI50 (HT29; HT29, Colon, 48 h): 1.06 µM
- TGI (HT29; HT29, Colon, 48 h): 12.5 µM
- CC50 (HT29; HT29, Colon, 48 h): 60.4 µM
- GI50 (SK-OV-3; SK-OV-3, Ovarian, 48 h): 0.24 µM
- TGI (SK-OV-3; SK-OV-3, Ovarian, 48 h): 0.78 µM
- CC50 (SK-OV-3; SK-OV-3, Ovarian, 48 h): > 100 µM
- GI50 (SN12C): 2.84 µM
- TGI (SN12C): 14.3 µM
- GI50 (SF-268; SF-268, CNS, 48 h): < 0.01 µM
- TGI (SF-268; SF-268, CNS, 48 h): 0.43 µM
- CC50 (SF-268; SF-268, CNS, 48 h): 24.4 µM
- GI50 (RPMI-8226 [4]; RPMI-8226, Leukemia, 48 h): 0.24 µM
- TGI (RPMI-8226 [4]; RPMI-8226, Leukemia, 48 h): 3.19 µM
- CC50 (RPMI-8226 [4]; RPMI-8226, Leukemia, 48 h): > 100 µM
- GI50 (CAKI-1; CAKI-1, Renal, 48 h): 0.16 µM
- TGI (CAKI-1; CAKI-1, Renal, 48 h): 0.51 µM
- CC50 (CAKI-1; CAKI-1, Renal, 48 h): 13.7 µM

Compound: Nc1nc2nc[nH]c2c(=S)[nH]1 [6-TG, 6-thioguanine]
- CC50 (SR): > 100 µM
- GI50 (SR): 0.19 µM
- TGI (SR): 17.9 µM
- GI50 (NCI-H23): 1.06 µM
- TGI (NCI-H23): 22.9 µM
- CC50 (NCI-H23): > 100 µM
- GI50 (RPMI-8226 [5]): 0.39 µM
- TGI (RPMI-8226 [5]): 20.9 µM
- CC50 (RPMI-8226 [5]): > 100 µM
- GI50 (K-562 [6]): 0.4 µM
- TGI (K-562 [6]): 70.8 µM
- CC50 (K-562 [6]): > 100 µM
- crypt epithelial apoptosis, large intestines [2]: considerable crypt cell apoptosis
- crypt epithelial cell apoptosis, small intestines [2]: extensively
- GI50 (SF-295): 1.02 µM
- TGI (SF-295): >100 µM
- CC50 (SF-295): > 100 µM
- CC50 (CCRF-CEM [7]): > 100 µM
- GI50 (CCRF-CEM [7]): 0.15 µM
- TGI (CCRF-CEM [7]): 25.4 µM
- GI50 (OVCAR-4): 1.49 µM
- TGI (OVCAR-4): 99.5 µM
- CC50 (OVCAR-4): > 100 µM
- GI50 (SF-539): 1.02 µM
- TGI (SF-539): 68.4 µM
- CC50 (SF-539): > 100 µM
- GI50 (HOP-62): 0.73 µM
- TGI (HOP-62): 28.4 µM
- CC50 (HOP-62): > 100 µM

Compound: Sc1ncnc2nc[nH]c12 [6-MP, 6-mercaptopurine]
- CC50 (SR): > 100 µM
- GI50 (SR): 1.27 µM
- TGI (SR): >100 µM
- GI50 (NCI-H23): 3.74 µM
- TGI (NCI-H23): >100 µM
- CC50 (NCI-H23): > 100 µM
- GI50 (RPMI-8226 [5]): 1.75 µM
- TGI (RPMI-8226 [5]): >100 µM
- CC50 (RPMI-8226 [5]): > 100 µM
- GI50 (K-562 [6]): 0.35 µM
- TGI (K-562 [6]): >100 µM
- CC50 (K-562 [6]): > 100 µM
- GI50 (SF-295): 5.36 µM
- TGI (SF-295): >100 µM
- CC50 (SF-295): > 100 µM
- CC50 (CCRF-CEM [7]): > 100 µM
- GI50 (CCRF-CEM [7]): 1.22 µM
- TGI (CCRF-CEM [7]): >100 µM
- GI50 (OVCAR-4): 7.11 µM
- TGI (OVCAR-4): >100 µM
- CC50 (OVCAR-4): > 100 µM
- GI50 (SF-539): 2.38 µM
- TGI (SF-539): >100 µM
- CC50 (SF-539): > 100 µM
- GI50 (HOP-62): 1.69 µM
- TGI (HOP-62): >100 µM
- CC50 (HOP-62): > 100 µM
